Assay results: US12139488B2, “Pyrido[3,2-d]pyrimidine compounds uses thereof for treating a proliferative disease” (Universite de Montreal, priority 2021, dated 2024)
Where two headings read alike, the source gives them in different places.

What was measured:
[1] = molecular target: BRAF (Homo sapiens (Human), UniProt P15056); test: BRAF kinase activity assay (ADP-Glo); assay type: biochemical; conditions: read-out: Kinase IC50 (nM) BRAF
In short: (§1)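 Compound was tested at nine concentrations (0.01–100 nM, 0.05% DMSO final) against BRAF or CRAF phosphorylating MEK1 with ATP, for 2 h at 30 °C. ADP formed was read by ADP-Glo luminescence, and % inhibition was fitted with a four-parameter log(agonist) model to obtain IC50.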

[2] = molecular target: CRAF (Homo sapiens, UniProt P04049); test: CRAF kinase activity assay (ADP-Glo); assay type: biochemical; conditions: read-out: Kinase IC50 (nM) CRAF
In short: as §1

[3] = test system: pERK in SW480 cells (KRAS G12D); test: Phospho-ERK inhibition (AlphaLISA), SW480; assay type: cell-based, human
Method: All cancer cell lines (A375, A101D, A2058, RKO, HT29 SK-MEL 30, IPC298, HepG2, HCT-116, Lovo, SWV620, SW480, NCI-H358, NCI-H2122, Calu-6, NCIH2087, NCIH1755, NCIH1666 and Mewo) were obtained from ATCC and cultured in RPMI-1640 medium (Gibco) supplemented with 5% heat inactivated fetal bovine serum (FBS, Wisent) at 37° C. under 5% CO2. Cells were maintained in T175 flasks (Greiner). They were passaged by removing the culture medium, washing once in 10 mL of room temperature Phosphate Buffered Saline (PBS; Wisent) and incubating at 37° C. with 2 mL of 0.05% Trypsin (Thermo-Fisher). Trypsin was then inactivated by adding complete growth medium and the cells were then replated in a T175 culture dish at the appropriate dilution. All cell lines were routinely tested for mycoplasma contamination. Tissue type and mutational status of each cell line can be found in Table B.
AlphaLISA® SureFire® Ultra™ p-ERK 1/2 (Thr202/Tyr204) analysis was conducted on cells plated in 100 μL of complete RPMI-1640 growth medium in 96-well flat-bottomed transparent dishes (Costar) at a density indicated in Table C. Cells were maintained overnight at 37° C. under 5% CO2 before treatment with compounds' dilution series for one hour. The cell density in cells/cm^2 corresponds to cell number divided by the area of one well of a 96-well plate ([…]).
In a dilution series 100 μL/well of test substance dilution prepared in complete RPMI-1640 growth media was added to the cells. The dilution series is selected so that ten concentrations cover a range from 10 μM to 0.33 nM. If necessary the initial concentration of 10 μM is increased to 100 μM or lowered to 1 μM (as in the case of A375 and H1666 cells, which are generally more sensitive to the compounds) and further dilution is carried out accordingly. The final concentration of DMSO in the assay is set at 0.5%.
After treatment, media was removed and cells were lysed in 50 μL of 1× AlphaScreen Ultra Lysis Buffer (Perkin Elmer). The AlphaLISA® SureFire® Ultra™ p-ERK 1/2 (Thr202/Tyr2O4) (PerkinElmer) reactions were performed with 5 μL of cell lysate according to the manufacturer's specifications in 384-well proxyplates (Perkin Elmer) followed by overnight incubation of the reactions at room temperature in a humidified chamber. After completion of the reactions, the signals were recorded on an EnVision plate reader (Perkin Elmer) using built in AlphaLISA® settings.
The effect of each compound dilution on the pERK signal was expressed in % inhibition and calculated as follows. An internal 100% inhibition control ([…] trametinib, cat #HY-10999; MedChem Express; CAS #871700-17-3) was included in each plate and used as a measure of pERK background. First, the value obtained for trametinib was subtracted from each data point. The average of DMSO (vehicle) controls (set as 0% inhibition) was established and used to calculate % inhibition: % inhibition=100*(1-((pERK signalcompound)/(pERK signalDMSO)))
The ability of each compound to inhibit pERK signal was expressed as an IC50 value obtained by plotting the inhibition values for each data point of a dilution series and fitting the obtained curves using a log(agonist) versus response-variable slope (four parameters) function using GraphPadPrism (V7.0) or Dotmatics Screening Ultra platform.
When present, paradoxical pERK induction is inferred from the negative % inhibition values observed in the pERK IC50 curves of a compound.

[4] = test system: pERK in HCT-116 cells (KRAS G13D); test: Phospho-ERK inhibition (AlphaLISA SureFire Ultra p-ERK 1/2), HCT116; assay type: cell-based, human
In short: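 Overnight-seeded cells received compound for an hour before lysis, and phospho-ERK1/2 was then measured with an AlphaLISA SureFire Ultra kit. Percent inhibition relative to vehicle, after trametinib background subtraction, gave IC50 by curve fitting.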

[5] = SW480 cells, class symbol before the bracket
[6] = HCT116 cells, class symbol before the bracket
[7] = lowest % inhibition value of the IC50 curve, SW480
[8] = lowest % inhibition value of the IC50 curve, HCT116

CRAF, sequence (P04049 whole entry, looked up): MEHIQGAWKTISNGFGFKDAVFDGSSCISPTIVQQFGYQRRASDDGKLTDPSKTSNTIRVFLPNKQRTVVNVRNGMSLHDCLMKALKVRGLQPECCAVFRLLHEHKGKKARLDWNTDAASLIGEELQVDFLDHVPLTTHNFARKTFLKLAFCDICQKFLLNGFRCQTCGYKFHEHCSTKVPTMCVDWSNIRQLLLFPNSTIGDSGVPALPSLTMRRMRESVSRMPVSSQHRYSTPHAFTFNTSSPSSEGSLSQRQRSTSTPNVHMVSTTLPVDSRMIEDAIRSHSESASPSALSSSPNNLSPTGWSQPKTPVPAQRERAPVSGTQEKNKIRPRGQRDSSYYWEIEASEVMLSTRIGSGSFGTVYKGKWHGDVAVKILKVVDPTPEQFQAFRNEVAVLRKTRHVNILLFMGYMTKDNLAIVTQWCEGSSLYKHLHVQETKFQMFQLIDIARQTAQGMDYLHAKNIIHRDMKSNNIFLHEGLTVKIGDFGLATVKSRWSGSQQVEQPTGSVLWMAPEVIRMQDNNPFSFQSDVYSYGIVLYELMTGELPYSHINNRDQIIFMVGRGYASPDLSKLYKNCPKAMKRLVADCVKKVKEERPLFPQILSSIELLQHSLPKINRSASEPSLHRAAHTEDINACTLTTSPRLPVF
BRAF, sequence (P15056 whole entry): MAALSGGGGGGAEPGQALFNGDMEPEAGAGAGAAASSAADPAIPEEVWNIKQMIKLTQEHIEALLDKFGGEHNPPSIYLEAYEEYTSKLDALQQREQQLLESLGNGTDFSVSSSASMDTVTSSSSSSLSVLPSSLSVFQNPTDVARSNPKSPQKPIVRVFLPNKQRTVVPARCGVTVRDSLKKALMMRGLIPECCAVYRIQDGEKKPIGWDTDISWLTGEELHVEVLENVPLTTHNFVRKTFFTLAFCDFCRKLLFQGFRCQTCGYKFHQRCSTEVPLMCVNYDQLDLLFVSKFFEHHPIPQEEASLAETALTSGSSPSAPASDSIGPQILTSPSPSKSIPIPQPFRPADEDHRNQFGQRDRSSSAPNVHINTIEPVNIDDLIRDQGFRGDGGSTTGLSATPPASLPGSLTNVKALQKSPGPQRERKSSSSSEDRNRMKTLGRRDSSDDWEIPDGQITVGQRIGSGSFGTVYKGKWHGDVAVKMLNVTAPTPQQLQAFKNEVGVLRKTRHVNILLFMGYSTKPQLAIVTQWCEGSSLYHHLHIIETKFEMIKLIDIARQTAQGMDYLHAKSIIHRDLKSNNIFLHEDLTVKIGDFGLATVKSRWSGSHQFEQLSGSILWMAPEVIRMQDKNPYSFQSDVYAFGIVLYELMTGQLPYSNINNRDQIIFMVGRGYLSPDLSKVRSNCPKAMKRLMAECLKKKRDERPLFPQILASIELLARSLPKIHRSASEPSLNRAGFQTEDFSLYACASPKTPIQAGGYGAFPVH

SMILES	IC50 [1] [nM]	IC50 [2] [nM]	IC50 [3, 5] [nM]	IC50 [4, 6] [nM]	IC50 ([1]; Table 5) [nM]	IC50 ([2]; Table 5) [nM]	IC50 ([3]; SW480 cells, Table 5) [nM]	IC50 ([4]; HCT116 cells, Table 5) [nM]	SW480 pERK Ymin % ([3]; SW480 cells, Ymin in brackets) [%]	HCT116 pERK Ymin % ([4]; HCT116 cells, Ymin in brackets) [%]	IC50 ([3]; SW480 cells, 1 h treatment) [nM]	SW480 pERK Ymin % [3, 7] [%]	IC50 ([4]; HCT116 cells, 1 h treatment) [nM]	HCT116 pERK Ymin % [4, 8] [%]	SW480 pERK Ymin % ([3]; lowest value of the curve, SW480, Table 5)	HCT116 pERK Ymin % ([4]; lowest value of the curve, HCT116, Table 5) [%]
COc1ccc(S(=O)(=O)Nc2ccc(F)c(Nc3ncnc4ccc(-n5cnc6ccccc65)nc34)c2F)cc1 [Example 1]	1 to 10	10 to 50	–	–	–	–	–	–	–	–	1000 to 10000	4	1000 to 10000	8	–	–
O=S(=O)(Nc1ccc(F)c(Nc2ncnc3ccc(-n4cnc5ccccc54)nc23)c1F)c1ccccc1Cl [Example 8]	1 to 10	< 10	–	–	–	–	–	–	–	–	500 to 1000	4.8	500 to 1000	−2.5	–	–
CCc1ccc(S(=O)(=O)Nc2ccc(F)c(Nc3ncnc4ccc(-n5cnc6ccccc65)nc34)c2F)cc1 [Example 10]	> 10	> 50	–	–	–	–	–	–	–	–	1000 to 10000	12	10000 to 30000	1	–	–
COc1ccc(S(=O)(=O)Nc2ccc(F)c(Nc3ncnc4ccc(-n5cnc6c(C(N)=O)cccc65)nc34)c2F)c(C)c1 [Example 75]	> 10	10 to 50	500 to 1000	500 to 1000	–	–	–	–	1	0	–	–	–	–	–	–
CN(C)C(=O)c1cn(-c2ccc3ncnc(Nc4c(F)ccc(NS(=O)(=O)c5ccccc5Cl)c4F)c3n2)c2cccc(N)c12 [Example 96]	< 1	> 50	< 500	< 500	–	–	–	–	12	12	–	–	–	–	–	–
Cc1c(Cl)cccc1S(=O)(=O)Nc1cccc(Nc2ncnc3ccc(-n4cnc5ccccc54)nc23)c1F [Example 240]	–	–	–	–	1 to 10	10 to 50	< 500	< 500	–	–	–	–	–	–	(−8) %	7

More lines, main results first:

IC50 [1] [nM]	IC50 [2] [nM]	IC50 [3, 5] [nM]	IC50 [4, 6] [nM]	IC50 ([1]; Table 5) [nM]	IC50 ([2]; Table 5) [nM]	IC50 ([3]; SW480 cells, Table 5) [nM]	IC50 ([4]; HCT116 cells, Table 5) [nM]	SMILES	SW480 pERK Ymin % ([3]; SW480 cells, Ymin in brackets) [%]	HCT116 pERK Ymin % ([4]; HCT116 cells, Ymin in brackets) [%]	IC50 ([3]; SW480 cells, 1 h treatment) [nM]	SW480 pERK Ymin % [3, 7] [%]	IC50 ([4]; HCT116 cells, 1 h treatment) [nM]	HCT116 pERK Ymin % [4, 8] [%]	SW480 pERK Ymin % ([3]; lowest value of the curve, SW480, Table 5)	HCT116 pERK Ymin % ([4]; lowest value of the curve, HCT116, Table 5) [%]
> 10	10 to 50	500 to 1000	500 to 1000	–	–	–	–	COc1ccc(S(=O)(=O)Nc2ccc(F)c(Nc3ncnc4ccc(-c5cncs5)nc34)c2F)c(C)c1 [Ex 59]	−4.9	−0.7	–	–	–	–	–	–
> 10	> 50	1000 to 10000	1000 to 10000	–	–	–	–	COc1cncc(-c2ccc3ncnc(Nc4c(F)ccc(NS(=O)(=O)c5ccc(OC)cc5C)c4F)c3n2)c1 [Ex 62]	8	−9	–	–	–	–	–	–
1 to 10	10 to 50	1000 to 10000	1000 to 10000	–	–	–	–	Cc1ncn(-c2ccc3ncnc(Nc4c(F)ccc(NS(=O)(=O)c5ccccc5Cl)c4F)c3n2)c1C [Ex 66]	−5	−2	–	–	–	–	–	–
1 to 10	10 to 50	500 to 1000	500 to 1000	–	–	–	–	O=S(=O)(Nc1ccc(F)c(Nc2ncnc3ccc(-c4cncs4)nc23)c1F)c1ccccc1Cl [Ex 67]	−1.3	−3.6	–	–	–	–	–	–
> 10	> 50	1000 to 10000	1000 to 10000	–	–	–	–	COc1ccc(S(=O)(=O)Nc2ccc(F)c(Nc3ncnc4ccc(-c5cnn6ccccc56)nc34)c2F)c(C)c1 [Ex 73]	−1	5	–	–	–	–	–	–
1 to 10	10 to 50	< 500	< 500	–	–	–	–	COc1ccc(S(=O)(=O)Nc2ccc(F)c(Nc3ncnc4ccc(-n5cnc6c(N)cccc65)nc34)c2F)c(C)c1 [Ex 76]	6	8	–	–	–	–	–	–
1 to 10	> 50	1000 to 10000	1000 to 10000	–	–	–	–	Nc1ncnc2c1ncn2-c1ccc2ncnc(Nc3c(F)ccc(NS(=O)(=O)c4ccccc4Cl)c3F)c2n1 [Ex 89]	−3	8	–	–	–	–	–	–
1 to 10	< 10	< 500	< 500	–	–	–	–	Nc1cccc2c1ncn2-c1ccc2ncnc(Nc3c(F)ccc(NS(=O)(=O)c4ccccc4Cl)c3F)c2n1 [Example 83]	2.5	−7.3	–	–	–	–	–	–
< 1	< 10	< 500	< 500	–	–	–	–	Nc1cccc2c1nnn2-c1ccc2ncnc(Nc3c(F)ccc(NS(=O)(=O)c4cccc(Cl)c4Cl)c3F)c2n1 [Example 100]	16	−16	–	–	–	–	–	–
